In one series the target is T1, adenosine A1 receptor (Homo sapiens, UniProt P30542).
T1 construct: purchased Receptor Biology, Inc. (USA)
T1 sequence (P30542 1-326): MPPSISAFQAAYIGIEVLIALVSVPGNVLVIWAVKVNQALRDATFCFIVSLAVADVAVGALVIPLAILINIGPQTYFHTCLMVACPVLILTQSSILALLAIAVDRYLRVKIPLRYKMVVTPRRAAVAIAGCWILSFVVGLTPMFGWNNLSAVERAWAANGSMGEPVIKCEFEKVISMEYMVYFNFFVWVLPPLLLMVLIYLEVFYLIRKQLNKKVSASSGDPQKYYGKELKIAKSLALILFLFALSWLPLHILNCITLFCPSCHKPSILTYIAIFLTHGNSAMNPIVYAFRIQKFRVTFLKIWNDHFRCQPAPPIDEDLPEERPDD
Kind of series: Adenosine receptor subtypes competition radioligand binding assay, A1 receptor. Conditions: human recombinant membranes. The source says:
(§1) Adenosine Receptor Subtypes Competition Radioligand Binding Assay
(§2) Human recombinant membranes with adenosine receptors were purchased from Receptor Biology, Inc. (USA).

The next series addresses T2, human A3 receptors (Homo sapiens, UniProt P0DMS8).
T2 construct: purchased Receptor Biology, Inc. (USA); host or cells: CHO cells
T2 sequence (P0DMS8 1-318): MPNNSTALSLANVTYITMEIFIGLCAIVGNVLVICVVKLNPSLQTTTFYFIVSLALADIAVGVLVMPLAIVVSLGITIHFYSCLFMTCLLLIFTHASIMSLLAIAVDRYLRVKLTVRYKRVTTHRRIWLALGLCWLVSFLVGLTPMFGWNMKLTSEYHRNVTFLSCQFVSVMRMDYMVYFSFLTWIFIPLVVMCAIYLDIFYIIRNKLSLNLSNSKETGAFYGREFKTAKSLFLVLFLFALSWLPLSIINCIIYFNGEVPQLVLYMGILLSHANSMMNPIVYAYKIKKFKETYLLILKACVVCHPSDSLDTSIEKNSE
Kind of series: Adenosine receptor subtypes competition radioligand binding assay, A3 receptor ([3H]-NECA). Conditions: membranes from human A3 receptors transfected to CHO cells, 60 min at 25° C. On the procedure:
as §1, §2
Competitive assays were carried out by incubation of membranes from human A3 receptors transfected to CHO cells, [^3H]-NECA, buffer (20 mM HEPES (pH 7.4), 100 mM NaCl, 10 mM MgCl2, 2 units/ml adenosine deaminase), and unlabelled ligand in a total volume of 0.2 ml for 60 min at 25° C. R-PIA was used to determine nonspecific binding. It was filtered over Schleicher & Schuell GF/52 (presoaked with 0.5% polyethyleneimine) in a Brandel cell harvester. The unbound radioligand was removed with 3×250 μl of 20 mM HEPES (pH 7.4), 100 mM NaCl, 10 mM MgCl2.
In Table 1, binding constants to adenosine A3 receptor obtained for some examples are shown.

Another series concerns rheumatoid arthritis. Conditions: RA patients, oral administration twice daily for 12 weeks; cited from earlier work.
Series [1] deals with experimental autoimmune uveitis. To be noted: experimental autoimmune uveitis model; cited from earlier work.
In series [2] the test system is ischemia induced renal failure. Conditions: rats, ischemia induced with micro aneurysm clips after pretreatment; cited from earlier work.
Series [3] concerns intestinal inflammation and spontaneous colitis. Conditions: mice; cited from earlier work.

The structures appear in SMILES notation.

The Ki is a dissociation constant, usually derived from enzyme kinetics or from competition with a known ligand. `COc1ccc(-c2nc(NC(=O)c3cccc(C(=O)O)c3)sc2C#N)cc1` [Example 6, 3-(5-cyano-4-(4-methoxyphenyl)thiazol-2-ylcarbamoyl)benzoic Acid]: the Ki is more than 1000 nM at adenosine A1 receptor and 10 nM at human A3 receptors.
For `COc1ccc(-c2nc(NC(=O)c3ccc(C(=O)O)s3)sc2C#N)cc1` [Example 8, 5-(5-cyano-4-(4-methoxyphenyl)thiazol-2-ylcarbamoyl)thiophene-2-carboxylic Acid], in that order: more than 1000 nM and 23 nM.
For `N#Cc1sc(NC(=O)c2ccc(C(=O)O)s2)nc1-c1ccc(F)cc1` [Example 13, 5-(5-cyano-4-(4-fluorophenyl)thiazol-2-ylcarbamoyl)thiophene-2-carboxylic Acid], in that order: 131 nM and 66 nM.
The matching figures for `N#Cc1sc(NC(=O)c2ccc(C(=O)O)s2)nc1-c1ccccc1F` [Example 15, 5-(5-cyano-4-(2-fluorophenyl)thiazol-2-ylcarbamoyl)thiophene-2-carboxylic Acid]: more than 500 nM and 99 nM.
Consider `N#Cc1sc(NC(=O)c2ccc(C(=O)O)s2)nc1-c1ccccc1` [Example 22, 5-(5-cyano-4-phenylthiazol-2-ylcarbamoyl)thiophene-2-carboxylic Acid], for which the Ki at adenosine A1 receptor is 87 nM; at human A3 receptors it was 66 nM.
Regarding `N#Cc1sc(NC(=O)c2ccc(C(=O)O)s2)nc1-c1cccs1` [Example 25, 5-((5-cyano-4-(thiophen-2-yl)thiazol-2-yl)carbamoyl)thiophene-2-carboxylic Acid], at human A3 receptors, the affinity corresponds to a Ki of 36 nM.
Still for that read-out and setting: with `N#Cc1sc(NC(=O)c2ccc(C(=O)O)s2)nc1-c1cc(Cl)cs1` [Example 26, 5-((4-(4-chlorothiophen-2-yl)-5-cyanothiazol-2-yl)carbamoyl)thiophene-2-carboxylic Acid] the figure was 12 nM.
As for `COc1ccc(-c2nc(NC(=O)c3cccc(C(=O)O)c3)sc2C#N)cn1` [Example 37, 3-(5-cyano-4-(6-methoxypyridin-3-yl)thiazol-2-ylcarbamoyl)benzoic Acid], the results for the Ki on adenosine A1 receptor and at human A3 receptors were more than 1000 nM and 99 nM, respectively.
For `O=C(O)c1ccc(C(=O)Nc2nc(-c3ccccc3)c(Cl)s2)s1` [Example 38, 5-(5-chloro-4-phenylthiazole-2-ylcarbamoyl)thiophene-2-carboxylic Acid], in that order: 34 nM and 21 nM.
As for `O=C(O)c1ccc(C(=O)Nc2nc(-c3ccccc3)c(F)s2)s1` [Example 41, 5-(5-fluoro-4-phenylthiazol-2-ylcarbamoyl)thiophene-2-carboxylic Acid], the Ki on adenosine A1 receptor amounted to 64 nM; at human A3 receptors, 10 nM.
The matching figures for `COc1ccc(-c2nc(NC(=O)c3ccc(C(=O)O)s3)sc2Cl)cc1` [Example 44, 5-(5-chloro-4-(4-methoxyphenyl)thiazol-2-ylcarbamoyl)thiophene-2-carboxylic Acid]: more than 1000 nM and 24 nM.
For the compound `CNC(=O)[C@H]1O[C@@H](n2cnc3c(NCc4cccc(I)c4)ncnc32)[C@H](O)[C@@H]1O` [IB-MECA, N6-(3-iodobenzyl)-adenosine-5′-N-methyluronamide], in the series with rheumatoid arthritis, the “Effect on disease signs and symptoms” value is “improvement of disease signs and symptoms”; the Safety and tolerability entry was “safe, well tolerated”. For the same compound, the “Effect on clinical and pathological manifestations of uveitis” value in series [1] is “inhibited the clinical and pathological manifestations of uveitis”. The “Effect of pretreatment on ischemia induced renal failure” value in series [2] is given as “harmful”. Moreover, in series [3], the “Effect on intestinal inflammation and spontaneous colitis” value is “ameliorate intestinal inflammation and spontaneous colitis”.

The values above are taken from patent publication US10238637B2, “Modulators of the adenosine A3 receptors” (PALOBIOFARMA, S.L., priority 2015, dated 2019).
